Measured values taken from patent publication US20080254081A1, “Moist Wipe and Method of Making Same” (GEORGIA-PACIFIC CONSUMER PRODUCTS LP, priority 2002, published 2008).

Test system: test microbes
Experiment: Zone of Inhibition Test, antimicrobial efficacy overall
Type: cell-based
Conditions: benzalkonium chloride in imbuement
From the text: Each fabric was placed in a commercially prepared imbuement containing benzalkonium chloride as the functional cationic additive (an antimicrobial agent).
All test results are the average of testing three batches of sample moist wipes. […] Therefore, all of these examples killed the test microbes when benzalkonium chloride was at the measured concentration in solution in the lotion (Table V). The difference (Example 10 versus Example 11) is when comparing the area around the circular piece of test wet wipe. As the benzalkonium chloride (from the imbuement) diffuses away from the test disk, the concentration of benzalkonium chloride decreases with increasing distance from the test disk. Each test microbe has a different minimum inhibitory concentration (MIC) for benzalkonium chloride to effectively kill that microbe. Therefore, if the concentration of benzalkonium chloride is above the MIC, it is observed as a visible zone where the growth of that test microbe has been inhibited. For this reason, some test microbes show no additional zone around the disk (code 0 in Table V), some show a partial zone around the disk (code 1), some show a small inhibition zone (code 2), while other test microbes show a larger inhibition zone (code 3). Therefore, comparisons among example wet wipes can only be made while comparing the same test microbe.

## benzalkonium chloride
  concentration remaining in solution shown to be sufficient for antibacterial efficacy: 0.029%
